Measurements: the NIST ThermoML archive (doi:10.1016/j.jct.2016.12.019)

How the values were obtained:
[1] = 100 kPa, Liquid; for viscosity: Capillary tube (Ostwald / Ubbelohde) method; for speed of sound: Frequency=2 MHz, Linear variable-path acoustic interferometer; for mass density: Vibrating tube method
[2] = xn = mol fraction of the nth substance listed; conditions: 100 kPa, Liquid, x2 = 0; for viscosity: Capillary tube (Ostwald / Ubbelohde) method; for speed of sound: Frequency=2 MHz, Linear variable-path acoustic interferometer; for mass density: Vibrating tube method

CCN(CC)c1ccccc1 [N,N-diethylaniline]
[1]
Conditions | mass density [kg/m3] | speed of sound [m/s] | viscosity [mPa·s]
303.15 K | 925.8 | 1432 | 1.711
308.15 K | 921.8 | 1416 | 1.537
313.15 K | 917.9 | 1398 | 1.4
318.15 K | 913.8 | 1378 | 1.276

CCCCCCCCCCO [decan-1-ol] + CCN(CC)c1ccccc1
[2]
Conditions | mass density [kg/m3] | speed of sound [m/s] | viscosity [mPa·s]
303.15 K | 822.89 | 1363.5 | 9.751
308.15 K | 819.54 | 1344.2 | 8.138
313.15 K | 815.95 | 1328.5 | 6.846
318.15 K | 811.35 | 1320.5 | 5.879

CCCCCCCCCO [nonan-1-ol]
[1]
Conditions | mass density [kg/m3] | speed of sound [m/s] | viscosity [mPa·s]
303.15 K | 821.36 | 1357 | 7.809
308.15 K | 817.54 | 1334 | 6.499
313.15 K | 814.05 | 1313 | 5.665
318.15 K | 808.97 | 1293.5 | 4.676

CCCCCCCCCO [nonan-1-ol] + CCN(CC)c1ccccc1
[2]
Conditions | mass density [kg/m3] | speed of sound [m/s] | viscosity [mPa·s]
303.15 K | 821.36 | 1357 | 7.809
308.15 K | 817.54 | 1334 | 6.499
313.15 K | 814.05 | 1313 | 5.665
318.15 K | 808.97 | 1293.5 | 4.676

CCCCCCCCO [octan-1-ol] + CCN(CC)c1ccccc1
[2]
Conditions | mass density [kg/m3] | speed of sound [m/s] | viscosity [mPa·s]
303.15 K | 818.25 | 1333.5 | 6.405
308.15 K | 814.72 | 1312.5 | 5.422
313.15 K | 810.07 | 1295.4 | 4.625
318.15 K | 805.52 | 1282.5 | 4.051
